According to US20240279278A1, “NMU RECEPTOR 2 AGONISTS” (Boehringer Ingelheim International GmbH, priority 2023, published 2024):
Residues, ends and D or L forms follow the SMILES beside them.

Key:
Format in all cases: cell-based
[1] = biological target: T1, human NMUR1 receptor (Homo sapiens, UniProt Q9HB89); experiment: IP1 Gq HTRF assay, activation of human NMUR1 in buffer; conditions: CHO-K1 cells expressing human NMUR1, stimulation buffer with 0.1% BSA; read-out: EC50 (hNMUR1) buffer
T1 construct: expressed in transfected cells; host or cells: CHO-K1
T1 sequence (Q9HB89 1-426): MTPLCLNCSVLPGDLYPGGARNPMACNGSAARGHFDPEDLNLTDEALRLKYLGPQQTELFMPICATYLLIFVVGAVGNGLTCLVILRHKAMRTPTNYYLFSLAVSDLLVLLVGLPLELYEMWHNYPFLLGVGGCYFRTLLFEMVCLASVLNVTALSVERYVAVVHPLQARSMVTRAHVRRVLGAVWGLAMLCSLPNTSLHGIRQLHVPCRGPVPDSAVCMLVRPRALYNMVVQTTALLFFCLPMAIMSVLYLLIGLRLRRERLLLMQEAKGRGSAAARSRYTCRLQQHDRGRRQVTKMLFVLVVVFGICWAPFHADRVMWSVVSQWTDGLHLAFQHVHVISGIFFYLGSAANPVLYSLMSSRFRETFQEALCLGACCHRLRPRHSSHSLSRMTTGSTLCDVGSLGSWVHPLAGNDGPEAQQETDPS
Description: Example 3: IP1 Gq HTRF Assay Activation of Human NMUR2 or Human NMUR1 in Buffer Application of the Homogenous Time Resolved Fluorescence (HTRF) technology optimized for Gq coupled receptors has been described in detail in the Cisbio IP-One Gq kit manual. In brief, a FRET signal (FRET: fluorescence resonance energy transfer) is generated between the donor label of an IP-One antibody (anti-IP1-Tb) and the acceptor label of a tagged IP-One (IP1-d2). Agonism of a Gq coupled receptor increases intracellular IP-One, which competes with labeled IP-One and leads to a reduction of the FRET signal. Frozen stocks of CHO-K1 cells stably expressing the human NMUR1 or NMUR2 receptor were thawed and 5000 cells were seeded in culture medium (HAM'S F12, 10% FCS) into each well of a 384-well assay plate. After seeding, cells were incubated for 24 h in a humidified incubator at 37° C. and 5% CO2. Next, cells were washed once with 50 μL of wash buffer (20 mM Hepes, 1×HBSS, pH 7.4), followed by addition of either 10 μL of stimulation buffer (20 mM Hepes, 1×HBSS, 50 mM LiCl, 0.1% BSA, pH 7.4). Peptide agonists to be tested were dissolved in 100% DMSO and pre-diluted in stimulation buffer at a suitable concentration range for an 8 pt dose-response curve. 5 μL of peptide pre-dilution were then added to each well, followed by another 5 μL of stimulation buffer to give a final concentration of 1% DMSO. Samples were subsequently incubated for 1 hour in a humidified incubator at 37° C. After addition of 5 μL each of IP1-d2 and anti-IP1-Tb, samples were incubated for another 1 hour at room temperature and FRET signals (ratio 665 nm/620 nm) were measured. EC50 values were calculated by nonlinear regression using a 4-parameter sigmoidal curve fit.

[2] = biological target: T2, human NMUR2 receptor (Homo sapiens, UniProt Q9GZQ4); experiment: IP1 Gq HTRF assay, activation of human NMUR2 in buffer; parameters: expressed in transfected cells; host or cells: CHO-K1; conditions: CHO-K1 cells expressing human NMUR2, stimulation buffer with 0.1% BSA; read-out: EC50 (hNMUR2) buffer
Procedure, shortened: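 IP-One HTRF competition (665/620 nm ratio) read after 1 h agonist exposure at 37 °C in pH 7.4 HEPES/HBSS stimulation buffer containing 50 mM LiCl, 0.1% BSA, 1% DMSO. Cells: CHO-K1 stably expressing human NMUR2 or NMUR1. EC50 by 4-parameter nonlinear regression of 8-point curves.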

[3] = biological target: T2, human NMUR2 receptor; experiment: IP1 Gq HTRF assay, activation of human NMUR2 in human plasma; parameters: expressed in transfected cells; host or cells: CHO-K1; conditions: CHO-K1 cells expressing human NMUR2, 100% human plasma; read-out: EC50 (hNMUR2) human plasma
Procedure, shortened: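 EC50 obtained via 4-parameter sigmoidal regression of HTRF IP-One signal (665 nm/620 nm), which falls as intracellular IP1 rises. Stimulation: 1 h, 37° C, peptides in human plasma plus 50 mM LiCl, 1% DMSO final, on NMUR2-expressing CHO-K1 cells, 8 concentrations.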

T2 sequence (Q9GZQ4 whole entry): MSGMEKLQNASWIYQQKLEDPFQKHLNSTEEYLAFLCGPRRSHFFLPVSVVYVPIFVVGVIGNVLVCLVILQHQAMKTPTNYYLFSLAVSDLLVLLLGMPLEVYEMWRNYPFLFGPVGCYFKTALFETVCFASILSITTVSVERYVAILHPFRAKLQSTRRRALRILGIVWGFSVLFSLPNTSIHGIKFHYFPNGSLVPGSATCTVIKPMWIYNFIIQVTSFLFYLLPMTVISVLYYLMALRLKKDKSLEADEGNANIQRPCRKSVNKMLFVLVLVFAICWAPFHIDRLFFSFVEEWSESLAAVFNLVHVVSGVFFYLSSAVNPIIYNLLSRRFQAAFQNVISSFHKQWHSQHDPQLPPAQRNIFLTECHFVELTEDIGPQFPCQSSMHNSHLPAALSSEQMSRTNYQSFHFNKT

## CCCC[C@H](NC(=O)[C@H](CC(C)C)N(C)C(=O)[C@H](Cc1ccccc1)NC(=O)[C@H](Cc1ccc(O)cc1)NC(=O)CN1CCN(CCNC(=O)CN(C)C(=O)CN(C)C(=O)CN(C)C(=O)CN(C)C(=O)CN(C)C(=O)CN(C)C(=O)CN(C)C(=O)CN(C)C(=O)CN(C)C(=O)CN(C)C(=O)CN(C)C(=O)CN(C)C(=O)CC[C@H](NC(=O)CC[C@H](NC(=O)CC[C@H](NC(=O)CCCCCCCCCCCCCCCCCCC(=O)O)C(=O)O)C(=O)O)C(=O)O)CC1)C(=O)N[C@@H](CCN)C(=O)N(C)[C@@H](C)C(=O)N[C@@H](CCCNC(=N)N)C(=O)NCC(N)=O [Compound 59, C20DA-gGlu3-Sar12-AEPipAc-Tyr-Phe-NMeLeu-Nle-Dbu-NMeAla-Arg-Gly-NH2]
[1]
  EC50: > 1000 nM
[2]
  EC50: 5 nM
[3]
  EC50: 12.1 nM

## CCCC[C@H](NC(=O)[C@H](CC(C)C)N(C)C(=O)[C@H](Cc1ccccc1)NC(=O)[C@H](Cc1ccc(O)cc1)NC(=O)CN1CCN(CCNC(=O)CN(C)C(=O)CN(C)C(=O)CN(C)C(=O)CN(C)C(=O)CN(C)C(=O)CN(C)C(=O)CN(C)C(=O)CN(C)C(=O)CN(C)C(=O)CC[C@H](NC(=O)CC[C@H](NC(=O)CC[C@H](NC(=O)CCCCCCCCCCCCCCCCCCC(=O)O)C(=O)O)C(=O)O)C(=O)O)CC1)C(=O)N[C@@H](CCN)C(=O)N(C)[C@@H](C)C(=O)N[C@@H](CCCNC(=N)N)C(=O)NCC(N)=O [Compound 61, C20DA-gGlu3-Sar9-AEPipAc-Tyr-Phe-NMeLeu-Nle-Dbu-NMeAla-Arg-Gly-NH2] (HELM PEPTIDE1{[O=C(O)CCCCCCCCCCCCCCCCCCC(=O)[*:2]].[gGlu].[gGlu].[gGlu].[Sar].[Sar].[Sar].[Sar].[Sar].[Sar].[Sar].[Sar].[Sar].[O=C(CN1CCN(CCN[*:1])CC1)[*:2]].Y.F.[meL].[Nle].[Dab].[meA].R.G.[am]}$$$$V2.0)
[1]
  EC50: > 1000 nM
[2]
  EC50: 4.6 nM
[3]
  EC50: 14.1 nM

## CCCC[C@H](NC(=O)[C@H](CC(C)C)N(C)C(=O)[C@H](Cc1ccccc1)NC(=O)[C@H](Cc1ccc(O)cc1)NC(=O)CN1CCN(CCNC(=O)CN(C)C(=O)CN(C)C(=O)CN(C)C(=O)CN(C)C(=O)CN(C)C(=O)CN(C)C(=O)CN(C)C(=O)CN(C)C(=O)CN(C)C(=O)CN(C)C(=O)CN(C)C(=O)CN(C)C(=O)CN(C)C(=O)CN(C)C(=O)CN(C)C(=O)CC[C@H](NC(=O)CC[C@H](NC(=O)CC[C@H](NC(=O)CCCCCCCCCCCCCCCCCCC(=O)O)C(=O)O)C(=O)O)C(=O)O)CC1)C(=O)N[C@@H](CCCN)C(=O)NCC(=O)N[C@@H](CCCNC(=N)N)C(=O)NCC(N)=O [Compound 29, C20DA-gGlu3-Sar15-AEPipAc-Tyr-Phe-NMeLeu-Nle-Orn-Gly-Arg-Gly-NH2] (HELM PEPTIDE1{[O=C(O)CCCCCCCCCCCCCCCCCCC(=O)[*:2]].[gGlu].[gGlu].[gGlu].[Sar].[Sar].[Sar].[Sar].[Sar].[Sar].[Sar].[Sar].[Sar].[Sar].[Sar].[Sar].[Sar].[Sar].[Sar].[O=C(CN1CCN(CCN[*:1])CC1)[*:2]].Y.F.[meL].[Nle].[Orn].G.R.G.[am]}$$$$V2.0)
[1]
  EC50: > 1000 nM
[2]
  EC50: 52 nM
[3]
  EC50: 535 nM

## CCCC[C@H](NC(=O)[C@H](CC(C)C)N(C)C(=O)[C@H](Cc1ccccc1)NC(=O)[C@H](Cc1ccc(O)cc1)NC(=O)CN1CCN(CCNC(=O)CN(C)C(=O)CN(C)C(=O)CN(C)C(=O)CN(C)C(=O)CN(C)C(=O)CN(C)C(=O)CN(C)C(=O)CN(C)C(=O)CN(C)C(=O)CN(C)C(=O)CN(C)C(=O)CN(C)C(=O)CC[C@H](NC(=O)CC[C@H](NC(=O)CC[C@H](NC(=O)CCCCCCCCCCCCCCCCC(=O)O)C(=O)O)C(=O)O)C(=O)O)CC1)C(=O)N(C)[C@@H](CCCNC(=N)N)C(=O)N1CCC[C@H]1C(=O)N[C@@H](CCCNC(=N)N)C(=O)NCC(N)=O [Compound 35, C18DA-gGlu3-Sar12-AEPipAc-Tyr-Phe-NMeLeu-Nle-NMeArg-Pro-Arg-Gly-NH2]
[1]
  EC50: 190 nM
[2]
  EC50: 1.5 nM
[3]
  EC50: 9.4 nM

## CCCC[C@H](NC(=O)[C@H](CC(C)C)N(C)C(=O)[C@H](Cc1ccccc1)NC(=O)[C@H](Cc1ccc(O)cc1)NC(=O)CN1CCN(CCNC(=O)CN(C)C(=O)CN(C)C(=O)CN(C)C(=O)CN(C)C(=O)CN(C)C(=O)CN(C)C(=O)CN(C)C(=O)CN(C)C(=O)CN(C)C(=O)CN(C)C(=O)CN(C)C(=O)CN(C)C(=O)CC[C@H](NC(=O)CC[C@H](NC(=O)CC[C@H](NC(=O)CC[C@H](NC(=O)CCCCCCCCCCCCCCCCC(=O)O)C(=O)O)C(=O)O)C(=O)O)C(=O)O)CC1)C(=O)N[C@@H](CCN)C(=O)N1CCC[C@H]1C(=O)N[C@@H](CCCNC(=N)N)C(=O)NCC(N)=O [Compound 41, C18DA-gGlu4-Sar12-AEPipAc-Tyr-Phe-NMeLeu-Nle-Dbu-Pro-Arg-Gly-NH2]
[1]
  EC50: 1300 nM
[2]
  EC50: 2 nM
[3]
  EC50: 12.2 nM

## CCCC[C@H](NC(=O)[C@H](CC(C)C)N(C)C(=O)[C@H](Cc1ccccc1)NC(=O)[C@H](Cc1ccc(O)cc1)NC(=O)CN1CCN(C(=O)CN(C)C(=O)CN(C)C(=O)CN(C)C(=O)CN(C)C(=O)CN(C)C(=O)CN(C)C(=O)CN(C)C(=O)CN(C)C(=O)CN(C)C(=O)CN(C)C(=O)CN(C)C(=O)CN(C)C(=O)CN(C)C(=O)CN(C)C(=O)CN(C)C(=O)CC[C@H](NC(=O)CC[C@H](NC(=O)CC[C@H](NC(=O)CCCCCCCCCCCCCCCCC(=O)O)C(=O)O)C(=O)O)C(=O)O)CC1)C(=O)N[C@@H](CCN)C(=O)N(C)[C@@H](C)C(=O)N[C@@H](CCCNC(=N)N)C(=O)NCC(N)=O [Compound 79, C18DA-gGlu3-Sar15-PipAc-Tyr-Phe-NMeLeu-Nle-Dbu-NMeAla-Arg-Gly-NH2] (HELM PEPTIDE1{[O=C(O)CCCCCCCCCCCCCCCCC(=O)[*:2]].[gGlu].[gGlu].[gGlu].[Sar].[Sar].[Sar].[Sar].[Sar].[Sar].[Sar].[Sar].[Sar].[Sar].[Sar].[Sar].[Sar].[Sar].[Sar].[O=C(CN1CCN([*:1])CC1)[*:2]].Y.F.[meL].[Nle].[Dab].[meA].R.G.[am]}$$$$V2.0)
[1]
  EC50: > 1000 nM
[2]
  EC50: 1.3 nM
[3]
  EC50: 7 nM

## CCCC[C@H](NC(=O)[C@H](CC(C)C)N(C)C(=O)[C@H](Cc1ccccc1)NC(=O)[C@H](Cc1ccc(O)cc1)NC(=O)CN1CCN(CCNC(=O)CN(C)C(=O)CN(C)C(=O)CN(C)C(=O)CN(C)C(=O)CN(C)C(=O)CN(C)C(=O)CN(C)C(=O)CN(C)C(=O)CN(C)C(=O)CC[C@H](NC(=O)CC[C@H](NC(=O)CC[C@H](NC(=O)CCCCCCCCCCCCCCCCC(=O)O)C(=O)O)C(=O)O)C(=O)O)CC1)C(=O)N[C@@H](CCCNC(=N)N)C(=O)N(C)[C@@H](C)C(=O)N[C@@H](CCCNC(=N)N)C(=O)NCC(N)=O [Compound 73, C18DA-gGlu3-Sar9-AEPipAc-Tyr-Phe-NMeLeu-Nle-Arg-NMeAla-Arg-Gly-NH2] (HELM PEPTIDE1{[O=C(O)CCCCCCCCCCCCCCCCC(=O)[*:2]].[gGlu].[gGlu].[gGlu].[Sar].[Sar].[Sar].[Sar].[Sar].[Sar].[Sar].[Sar].[Sar].[O=C(CN1CCN(CCN[*:1])CC1)[*:2]].Y.F.[meL].[Nle].R.[meA].R.G.[am]}$$$$V2.0)
[1]
  EC50: 540 nM
[2]
  EC50: 1.9 nM
[3]
  EC50: 15.6 nM
